Test results taken from ChEMBL document CHEMBL1649331, “Determination of CEM-101 activity tested against clinical isolates of Neisseria meningitidis from a worldwide collection” (2010).
Converted amounts (≈) assume the structure as drawn.

Legend:
Assay type in all cases: functional
[1] = system: Neisseria meningitidis; assay: Antimicrobial activity against Neisseria meningitidis by broth microdilution method
[2] = system: Neisseria meningitidis; assay: Antimicrobial activity against Neisseria meningitidis assessed as susceptible isolate by broth microdilution method
[3] = system: Neisseria meningitidis; assay: Antimicrobial activity against Neisseria meningitidis assessed as resistant isolate by broth microdilution method

| Structure (SMILES) | MIC [1] [µg/mL] | MIC50 [1] [µg/mL] | MIC90 [1] [µg/mL] | Activity [2] [%] | Activity [3] [%] |
| --- | --- | --- | --- | --- | --- |
| CC[C@H]1OC(=O)[C@H](C)[C@@H](O[C@H]2C[C@@](C)(OC)[C@@H](O)[C@H](C)O2)[C@H](C)[C@@H](O[C@@H]2O[C@H](C)C[C@H](N(C)C)[C@H]2O)[C@](C)(O)C[C@@H](C)CN(C)[C@H](C)[C@@H](O)[C@]1(C)O [AZITHROMYCIN] | ≤ 0.015 | 0.06 (≈ 0.0801 µM) | 0.12 (≈ 0.16 µM) | 100 |  |
| O=C(O)c1cn(C2CC2)c2cc(N3CCNCC3)c(F)cc2c1=O [CIPROFLOXACIN] |  |  |  | 97.1 | 1.9 |
| C[C@H]1COc2c(N3CCN(C)CC3)c(F)cc3c(=O)c(C(=O)O)cn1c23.C[C@H]1COc2c(N3CCN(C)CC3)c(F)cc3c(=O)c(C(=O)O)cn1c23.O [LEVOFLOXACIN] | ≤ 0.008 | ≤ 0.008 | ≤ 0.008 | 97.1 | 1.9 |
| CN(C)c1ccc(O)c2c1C[C@H]1C[C@H]3[C@H](N(C)C)C(O)=C(C(N)=O)C(=O)[C@@]3(O)C(O)=C1C2=O [MINOCYCLINE] | ≤ 0.015 | 0.12 (≈ 0.262 µM) | 0.25 (≈ 0.546 µM) | 100 | 0 |
| CC1(C)S[C@@H]2[C@H](NC(=O)Cc3ccccc3)C(=O)N2[C@H]1C(=O)O [PENICILLIN G] | ≤ 0.015 | 0.03 (≈ 0.0897 µM) | 0.12 (≈ 0.359 µM) | 84.5 | 0 |
| CO[C@H]1/C=C/O[C@@]2(C)Oc3c(C)c(O)c4c(O)c(c(/C=N/N5CCN(C)CC5)c(O)c4c3C2=O)NC(=O)/C(C)=C\C=C\[C@H](C)[C@H](O)[C@@H](C)[C@@H](O)[C@@H](C)[C@H](OC(C)=O)[C@@H]1C [RIFAMPIN] |  | 0.015 (≈ 0.0182 µM) | 0.03 (≈ 0.0365 µM) | 100 | 0 |

The next lines start with results.

| MIC [1] [µg/mL] | MIC50 [1] [µg/mL] | MIC90 [1] [µg/mL] | Structure (SMILES) | Activity [2] [%] | Activity [3] [%] |
| --- | --- | --- | --- | --- | --- |
|  | ≤ 0.015 | ≤ 0.015 | CO/N=C(\C(=O)N[C@@H]1C(=O)N2C(C(=O)O)=C(CSc3nc(=O)c(O)nn3C)CS[C@H]12)c1csc(N)n1 [CEFTRIAXONE] | 100 |  |
| ≤ 0.015 | 0.03 (≈ 0.0401 µM) | 0.12 (≈ 0.16 µM) | CC[C@H]1OC(=O)[C@H](C)[C@@H](O[C@H]2C[C@@](C)(OC)[C@@H](O)[C@H](C)O2)[C@H](C)[C@@H](O[C@@H]2O[C@H](C)C[C@H](N(C)C)[C@H]2O)[C@](C)(OC)C[C@@H](C)C(=O)[C@H](C)[C@@H](O)[C@]1(C)O [CLARITHROMYCIN] |  |  |
| ≤ 0.03 | 0.12 (≈ 0.164 µM) | 0.25 (≈ 0.341 µM) | CC[C@H]1OC(=O)[C@H](C)[C@@H](O[C@H]2C[C@@](C)(OC)[C@@H](O)[C@H](C)O2)[C@H](C)[C@@H](O[C@@H]2O[C@H](C)C[C@H](N(C)C)[C@H]2O)[C@](C)(O)C[C@@H](C)C(=O)[C@H](C)[C@@H](O)[C@]1(C)O [ERYTHROMYCIN] |  |  |
| ≤ 0.015 | ≤ 0.015 | ≤ 0.015 | CC[C@H]1OC(=O)[C@@](C)(F)C(=O)[C@H](C)[C@@H](O[C@@H]2O[C@H](C)C[C@H](N(C)C)[C@H]2O)[C@](C)(OC)C[C@@H](C)C(=O)[C@H](C)[C@H]2N(CCCCn3cc(-c4cccc(N)c4)nn3)C(=O)O[C@]12C [SOLITHROMYCIN] |  |  |
| ≤ 0.015 | ≤ 0.015 | 0.03 (≈ 0.0369 µM) | CC[C@H]1OC(=O)[C@H](C)C(=O)[C@H](C)[C@@H](O[C@@H]2O[C@H](C)C[C@H](N(C)C)[C@H]2O)[C@](C)(OC)C[C@@H](C)C(=O)[C@H](C)[C@H]2N(CCCCn3cnc(-c4cccnc4)c3)C(=O)O[C@]12C [TELITHROMYCIN] |  |  |
